Columns and labels:
[1] = Bile acid analysis of serum and brain; format: in vivo, rat; settings: single 100 mg/kg bw arterial dose
From the text: (§1) All animals received humane care in compliance with the institute's guidelines as outlined in “Guide for the Care and Use of Laboratory Animals” prepared by the National Academy of Sciences and published by the National Institutes of Health (NIH publication no. 86-23, revised 1985). Female Sprague-Dawley rats (250-300 grams (g); Harlan Sprague-Dawley, Inc., Indianapolis, Ind.) were anesthesized with an intramuscular injection of a mixture of ketamine and xylazine and set in supine in a Kopf headholder. The right carotid artery, external and internal branches, was exposed and the distal end of the external carotid freed and retracted to line with the internal carotid. A PE-10 polyethylene tube (Becton-Dickinson, Sparks, Md.) was then introduced from the external into the internal carotid artery, and the former was ligated to hold the tube. […]
Normal controls and rats with intrastriatal hematoma were sacrificed 1, 3, and 6 hours after TUDCA or vehicle injection. […] Bile acids were assessed by gas chromatography after organic solvent extraction, purification on Lipidex 1000, liquid-solid extraction, hydrolysis, isolation by lipophilic anion exchange chromatography and conversion to methyl ester-trimethylsilyl ether derivatives (Setchell et al., Gastroenterology 1997;112:226-235). Bile acid concentrations were expressed as nmol/g of tissue or as μmol/l of serum.

collagenase-induced ICH = experiment: Neurological testing: limb placement / step initiation after ICH; format: in vivo, rat
From the text: as §1
The animals were tested for rotational behavior in response to apomorphine 2 days after surgery. Apomorphine (1 mg/kg bw; Sigma Chemical Co.) was injected subcutaneously, and rotations were determined by a computer-controlled Columbus Instruments Videomex-V system (Columbus, Ohio). […] Step initiation was assessed at 2 days after ICH by independently analyzing stepping behavior in the left and right forelimbs. […] The number of steps initiated by each limb was counted during a 1-minute period.

[2] = tested on: NF-κB/IκBα protein complex; experiment: Immunoblotting and immunohistochemistry of NF-κB/IκBα in ICH rat brain; format: in vivo
From the text: All animals received humane care in compliance with the institute's guidelines as outlined in “Guide for the Care and Use of Laboratory Animals” prepared by the National Academy of Sciences and published by the National Institutes of Health (NIH publication no. 86-23, revised 1985). Female Sprague-Dawley rats (250-300 grams (g); Harlan Sprague-Dawley, Inc., Indianapolis, Ind.) were anesthesized with an intramuscular injection of a mixture of ketamine and xylazine and set in supine in a Kopf headholder. The right carotid artery, external and internal branches, was exposed and the distal end of the external carotid freed and retracted to line with the internal carotid. A PE-10 polyethylene tube (Becton-Dickinson, Sparks, Md.) was then introduced from the external into the internal carotid artery, and the former was ligated to hold the tube. TUDCA (Calbiochem-Novabiochem Corp., San Diego, Calif.) was dissolved in phosphate buffer, pH 7.4 at 400 milligrams per milliliter (mg/ml). Saline or TUDCA solution (1 milliliter per kilogram body weight (ml/kg bw)) were injected directly into the internal carotid artery, within 5 minutes. […]
Bcl-2 family, NF-κB, IκB, p-Akt, and p-Bad protein levels were determined from total protein homogenates separated by 12% sodium dodecyl sulfate polyacrylamide gel electrophoresis (SDS-PAGE). […]

concentration at 3 h ([1]; female, Sprague-Dawley, rat, serum, other: injected directly into the internal carotid artery, 3 hours following injection (from 0.3)): 10.6 µM | increase in brain concentrations of the bile acid compared with vehicle-injected controls ([1]; 3 hours): 10 fold
Structure (SMILES): C[C@H](CCC(=O)NCCS(=O)(=O)O)[C@H]1CC[C@H]2[C@@H]3[C@@H](O)C[C@@H]4C[C@H](O)CC[C@]4(C)[C@H]3CC[C@]12C [TUDCA, tauroursodeoxycholic acid]
improved motor activity in test of limb placement (collagenase-induced ICH; time-course experiment of TUDCA administration, 2 days after ICH): 25-40% | steps initiated by left forelimb in 1-minute period versus vehicle (collagenase-induced ICH; unilateral striatal hemorrhage, 2 days): significantly more steps | NF-κB activation in the peri-ICH region (immunohistochemistry, words) ([2]; 100 mg/kg bw TUDCA, 2 days after ICH): markedly decreased | IκBα protein level (Western blot, words) ([2]; increasing doses of TUDCA (10-200 mg/kg bw) 1 hour before collagenase, ipsilateral hemisphere): largely restored

— patent publication US20060135494A1, “Methods of treating injuries of the nervous system associated with hemorrhage” (priority 2002, published 2006)
